# Data taken from ChEMBL document CHEMBL5230157, “The natural anthraquinone dye purpurin exerts antibacterial activity by perturbing the FtsZ assembly” (Bioorg Med Chem, 2021).
# Activity calls are given as the source filed them. The rule behind the calls is not given here.
# Legend:
# [1] = target: T1, Cell division protein FtsZ (Escherichia coli K-12) (UniProt P0A9A6); assay: Inhibition of KCl-induced Escherichia coli BL21 FtsZ polymerization assessed as decrease in FtsZ polymer thickness at 80 uM incubate for 1 hrs by […] staining based fluorescence microscopy
# T1 sequence (whole entry): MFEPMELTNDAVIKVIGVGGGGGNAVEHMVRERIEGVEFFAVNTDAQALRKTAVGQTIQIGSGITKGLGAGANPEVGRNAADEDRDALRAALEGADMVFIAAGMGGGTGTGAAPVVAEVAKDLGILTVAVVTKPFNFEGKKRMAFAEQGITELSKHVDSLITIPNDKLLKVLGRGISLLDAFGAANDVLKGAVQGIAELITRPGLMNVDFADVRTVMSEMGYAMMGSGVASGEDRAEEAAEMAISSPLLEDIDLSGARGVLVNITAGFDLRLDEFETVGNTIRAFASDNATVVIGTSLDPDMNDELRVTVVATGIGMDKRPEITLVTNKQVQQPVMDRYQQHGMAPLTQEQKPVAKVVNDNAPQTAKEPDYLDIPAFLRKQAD
# Bacillus subtilis [2] = assay: Antibacterial activity against Bacillus subtilis 168 assessed as bacterial growth inhibition at 5 uM by spectrophotometric method; format: functional; conditions: read-out: GI
# Escherichia coli [3] = assay: Antibacterial activity against Escherichia coli XL1 assessed as bacterial growth inhibition at 30 uM by spectrophotometric method; format: functional; conditions: read-out: GI
# Bacillus subtilis [4] = assay: Antibacterial activity against Bacillus subtilis 168 assessed as bacterial growth inhibition at 20 uM by spectrophotometric method; format: functional; conditions: read-out: GI
# [5] = target: T2, Cell division protein FtsZ (Bacillus subtilis) (UniProt A5Z1V5); assay: Inhibition of Bacillus subtilis 168 FtsZ assessed as effect on nucleoid segregation at 7 uM for 4 hrs by immunostaining based fluorescent microscopy
# T2 sequence (whole entry): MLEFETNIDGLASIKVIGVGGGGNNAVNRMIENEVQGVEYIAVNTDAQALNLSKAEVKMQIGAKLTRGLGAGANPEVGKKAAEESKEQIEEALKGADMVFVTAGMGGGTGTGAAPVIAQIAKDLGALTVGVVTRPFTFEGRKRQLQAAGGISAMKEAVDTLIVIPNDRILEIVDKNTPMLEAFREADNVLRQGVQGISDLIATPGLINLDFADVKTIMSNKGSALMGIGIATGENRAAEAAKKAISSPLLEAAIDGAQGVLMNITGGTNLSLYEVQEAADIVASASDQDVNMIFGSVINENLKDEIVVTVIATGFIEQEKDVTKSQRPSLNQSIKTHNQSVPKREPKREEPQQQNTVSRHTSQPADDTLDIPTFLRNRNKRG
# [6] = target: T2, Cell division protein FtsZ (Bacillus subtilis); assay: Inhibition of Bacillus subtilis PL642 GFP-tagged FtsZ assessed as effect on nucleoid segregation at 7 uM for 4 hrs by immunostaining based fluorescent microscopy
# HeLa [7] = assay: Antiproliferative activity against human HeLa cells assessed as inhibition of cell proliferation incubated for 24 hrs by sulfo-rhodamine B assay; format: functional, cell-based
# [8] = target: T1, Cell division protein FtsZ (Escherichia coli K-12); assay: Inhibition of Escherichia coli BL21 FtsZ assessed as inhibition of KCl-induced GTPase activity at 20 uM preincubated for 10 mins followed by KCl stimulation and measured after 10 mins by malachite green ammonium molybdate dye based spectroscopic analysis; conditions: time 20.0 min
# Bacillus subtilis [9] = assay: Antibacterial activity against Bacillus subtilis 168 assessed as bacterial growth inhibition at 30 uM by spectrophotometric method; format: functional; conditions: read-out: GI
# Escherichia coli [10] = assay: Antibacterial activity against Escherichia coli XL1 assessed as fold increase in average cell length at 80 uM incubated for 4 hrs in by fluorescent microscopy; format: functional
# HeLa [11] = assay: Antiproliferative activity against human HeLa cells assessed as inhibition of cell proliferation at 50 uM incubated for 24 hrs by sulforhodamine B assay; format: functional; parameters: scale not given: the % may be the effect or the level left
# HeLa [12] = assay: Antiproliferative activity against human HeLa cells assessed as inhibition of cell proliferation at 200 uM incubated for 24 hrs by sulforhodamine B assay; format: functional; parameters: scale not given: the % may be the effect or the level left
# Bacillus subtilis [13] = assay: Antibacterial activity against Bacillus subtilis 168 assessed as bacterial growth inhibition by spectrophotometric method; format: functional, organism-based
# Escherichia coli [14] = assay: Antibacterial activity against Escherichia coli XL1 assessed as bacterial growth inhibition at 300 uM by spectrophotometric method; format: functional; conditions: read-out: GI
# [15] = target: T1, Cell division protein FtsZ (Escherichia coli K-12); assay: Binding affinity to Escherichia coli BL21 FtsZ assessed as hydrophobic probe ANS-FtsZ complex fluorescence quenching at 10 uM for 30 mins by fluorescence analysis
# [16] = target: T2, Cell division protein FtsZ (Bacillus subtilis); assay: Binding affinity to Bacillus subtilis FtsZ assessed as intrinsic tryptophan quenching incubated for 30 mins by fluorescence analysis
# HeLa [17] = assay: Antiproliferative activity against human HeLa cells assessed as inhibition of cell proliferation at 100 uM incubated for 24 hrs by sulforhodamine B assay; format: functional; parameters: scale not given: the % may be the effect or the level left
# [18] = target: T1, Cell division protein FtsZ (Escherichia coli K-12); assay: Binding affinity to Escherichia coli BL21 FtsZ assessed as hydrophobic probe ANS-FtsZ complex fluorescence quenching at 2 uM for 30 mins by fluorescence analysis
# [19] = target: T2, Cell division protein FtsZ (Bacillus subtilis); assay: Inhibition of Bacillus subtilis PL642 GFP-tagged FtsZ assessed as decrease FtsZ ring at mid bacterial cells at 7 uM for 4 hrs by immunostaining based fluorescent microscopy
# Bacillus subtilis [20] = assay: Antibacterial activity against Bacillus subtilis 168 assessed as increase in average cell length at 7 uM incubated for 4 hrs in 9% of bacterial cells by fluorescent microscopy; format: functional
# [21] = target: T1, Cell division protein FtsZ (Escherichia coli K-12); assay: Inhibition of KCl-induced Escherichia coli BL21 FtsZ polymerization at 80 uM incubate for 10 min followed by KCl stimulation by spectrofluorimeter based light-scattering assay
# [22] = target: T3, Cell division protein FtsZ (Escherichia coli K-12, UniProt P0A9A6); assay: Binding affinity to Escherichia coli BL21 FtsZ assessed as dissociation constant of hydrophobic probe ANS-FtsZ complex fluorescence quenching incubated for 30 mins by double reciprocal plot analysis
# T3 sequence (P0A9A6 whole entry): T1 sequence (whole entry)
# Bacillus subtilis [23] = assay: Antibacterial activity against Bacillus subtilis 168 assessed as increase in average cell length at 7 uM incubated for 4 hrs in 69% of bacterial cells by fluorescent microscopy; format: functional
# [24] = target: T1, Cell division protein FtsZ (Escherichia coli K-12); assay: Binding affinity to Escherichia coli BL21 FtsZ assessed as hydrophobic probe ANS-FtsZ complex fluorescence quenching at 80 uM for 30 mins by fluorescence analysis
# [25] = target: T2, Cell division protein FtsZ (Bacillus subtilis); assay: Inhibition of Bacillus subtilis 168 FtsZ assessed as decrease FtsZ ring at mid bacterial cells at 7 uM for 4 hrs by immunostaining based fluorescent microscopy
# Escherichia coli [26] = assay: Antibacterial activity against Escherichia coli XL1 assessed as bacterial growth inhibition at 20 uM by spectrophotometric method; format: functional; conditions: read-out: GI
smiles,measurement,setting,value
O=C1c2ccccc2C(=O)c2c(O)c(O)cc(O)c21 [PURPURIN],inhibition,[1],Active
same,inhibition of growth at 5 µM,Bacillus subtilis [2],47%
same,inhibition of growth at 30 µM,Escherichia coli [3],25.6%
same,inhibition of growth at 20 µM,Bacillus subtilis [4],86%
same,Activity,[5],inactive
same,Activity,[6],inactive
same,IC50,HeLa [7],110 µM
same,inhibition,[8],15.9%
same,inhibition of growth at 30 µM,Bacillus subtilis [9],100%
same,fold change (FC),Escherichia coli [10],4
same,Activity,HeLa [11],28%
same,Activity,HeLa [12],72%
same,IC50,Bacillus subtilis [13],5.5 µM
same,inhibition of growth at 300 µM,Escherichia coli [14],94.7%
same,Activity,[15],35%
same,Activity,[16],Dose-Dependent Effect
same,Activity,HeLa [17],45%
same,Activity,[18],14%
same,Activity,[19],Active
same,Activity,Bacillus subtilis [20],7 um
same,inhibition,[21],47%
same,Kd,[22],11 µM
same,Activity,Bacillus subtilis [23],15.1 um
same,Activity,[24],81%
same,Activity,[25],Active
same,inhibition of growth at 20 µM,Escherichia coli [26],18.5%
